# Test results from patent US8735395B2, “Protease inhibitors” (Medivir AB, priority 2008, dated 2014).
# Columns and labels:
# [1] = biological target: human cathepsin S (Homo sapiens (Human), UniProt P25774); test: Cathepsin S Ki determination; assay type: biochemical
# Protocol: 280 μl/well of 12.5% DMSO are added to rows B-H of two columns of a 96 deep well polypropylene plate. […] 200 μl/well of assay buffer is added to columns 1 and 6. […] Mix row A using a multichannel pipette and double dilute to row G. Mix row H and read in the fluorescent spectrophotometer. […] The second test compound is added to column 6 of the top row, the third to column 1 of the second row etc. Add 1 μl of comparator to column 6 of the bottom row. Mix column 1 and double dilute to column 5. Mix column 6 and double dilute to column 10. Using an 8-channel multistepping pipette set to 5×10 μl, distribute 10 μl/well of substrate to the 384 well assay plate. Distribute the first column of the substrate dilution plate to all columns of the assay plate starting at row A. The tip spacing of the multichannel pipette will correctly skip alternate rows. Distribute the second column to all columns starting at row B. Using a 12-channel multistepping pipette set to 4×10 μl, distribute 10 μl/well of inhibitor to the 384 well assay plate. Distribute the first row of the inhibitor dilution plate to alternate rows of the assay plate starting at A1. The tip spacing of the multichannel pipette will correctly skip alternate columns. […] Mix 20 ml assay buffer and 20 μl 1M DTT. […] Using the a distributor such as a Multidrop 384, add 30 μl/well to all wells of the assay plate and read in fluorescent spectrophotomoter such as an Ascent. Fluorescent readings, (excitation and emission wavelengths 390 nm and 460 nm respectively, set using bandpass filters) reflecting the extent of enzyme cleavage of the fluorescent substrate, notwithstanding the inhibitor, are linear rate fitted for each well. […] Potential inhibitors are screened using the above assay with variable concentrations of test compound. Reactions were initiated by addition of enzyme to buffered solutions of substrate and inhibitor.
# [2] = reference markers for the Caco-2 assay; cited from earlier work
# [3] = tested on: Caco-2 cells
# Protocol: (§3) This experiment measures transport of inhibitors through the cells of the human gastroenteric canal. The assay uses the well known Caco-2 cells with a passage number between 40 and 60.
# (§4) The basolateral and the apical wells will contain 1.5 mL and 0.4 mL transport buffer (TB), respectively, and the standard concentration of the tested substances is 10 μM. Furthermore all test solutions and buffers will contain 1% DMSO. Prior to the experiment the transport plates are pre-coated with culture medium containing 10% serum for 30 minutes to avoid nonspecific binding to plastic material. After 21 to 28 days in culture on filter supports the cells are ready for permeability experiments.
# (§5) In ASB screening the TB in basolateral well also contains 1% Bovine Serum Albumin.
# (§6) 0.5 mL transport buffer (HBSS, 25 mM MES, pH 6.5) is added to the inserts and the cell monolayers equilibrated in the transport buffer system for 30 minutes at 37° C. in a polymix shaker. After being equilibrated to the buffer system the Transepithelial electrical resistance value (TEER) is measured in each well by an EVOM chop stick instrument. […]
# (§7) 300 μL will be taken from the basolateral (receiver) wells at each scheduled time point and the post value of TEER is measured at the end the experiment. […]
# FAcum is calculated from: […]
# (§8) The determination of permeability coefficients (Papp, cm/s) are calculated from: […]
# [4] = Metabolic stability in whole blood (CLint); assay type: in vitro ADME
# Protocol: (§1) Alternatively, an analogous stability assay is carried out in human or monkey whole blood and/or commercially available liver microsomes, such as XEN 025.
# [5] = biological target: human recombinant cathepsin K (Homo sapiens (Human), UniProt P43235); test: Determination of cathepsin K proteolytic catalytic activity (Ki); assay type: biochemical
# Protocol: Determination of Cathepsin K Proteolytic Catalytic Activity
# Convenient assays for cathepsin K are carried out using human recombinant enzyme, such as that described in PDB.
# The recombinant cathepsin K can be expressed in a variety of commercially available expression systems including E coli, Pichia and Baculovirus systems. The purified enzyme is activated by removal of the prosequence by conventional methods.
# The enzyme concentration used was 5 nM. The stock substrate solution was prepared at 10 mM in DMSO. Screens were carried out at a fixed substrate concentration of 60 μM and detailed kinetic studies with doubling dilutions of substrate from 250 μM. The total DMSO concentration in the assay was kept below 3%. All assays were conducted at ambient temperature. Product fluorescence (excitation at 390 nm, emission at 460 nm) was monitored with a Labsystems Fluoroskan Ascent fluorescent plate reader. Product progress curves were generated over 15 minutes following generation of AMC product.
# (§2) Potential inhibitors are screened using the above assay with variable concentrations of test compound. Reactions were initiated by addition of enzyme to buffered solutions of substrate and inhibitor. Ki values were calculated according to equation 1.
# where v0 is the velocity of the reaction, V is the maximal velocity, S is the concentration of substrate with Michaelis constant of KM, and I is the concentration of inhibitor.
# [6] = biological target: human cathepsin L (Homo sapiens (Human), UniProt P07711); test: Cathepsin L Ki; assay type: biochemical
# Protocol: The procedure above with the following amendments is used for the determination of Ki for cathepsin L.
# The enzyme is commercially available human cathepsin L (for example Calbiochem). The substrate is H-D-Val-Leu-Lys-AMC available from Bahcem. The assay buffer is 100 mM sodium acetate 1 mM EDTA, pH5.5) The DMSO stock (10 mM in 100% DMSO) is diluted to 10% in assay buffer. Enzyme is prepared at 5 nM concentration in assay buffer plus 1 mM dithiothreitol just before use. 2 ul of 10 mM inhibitor made up in 100% DMSO is dispensed into row A. 10 μl of 50 μM substrate (=1/200 dilution of 10 mM stock in DMSO, diluted in assay buffer)
# as §2
# [7] = Metabolic stability in liver microsomes (HLM CLint); assay type: in vitro ADME; conditions: human
# Protocol: as §1
# [8] = In vivo mouse PK, oral administration (FIG. 1); conditions: male C57BI mice, oral 60 μmol/kg in 1% Methocel A4C; compared with Example 2 of WO2008 007107
# Text: FIG. 1 depicts plasma concentration against time for male C57BI mice orally administered a compound of the invention or a compound of the prior art.
# Various embodiments of the invention will now be described by way of illustration only with reference to the following Examples and FIG. 1 which depicts plasma concentration against time for male C57BI mice orally administered a compound of the invention or a compound of the prior art.
# [9] = Caco-2 permeability; conditions: human
# Protocol: as §3, §4, §5, §6, §7
# FAcum is calculated from: […]
# as §8
# human cathepsin S, sequence (P25774 115-331): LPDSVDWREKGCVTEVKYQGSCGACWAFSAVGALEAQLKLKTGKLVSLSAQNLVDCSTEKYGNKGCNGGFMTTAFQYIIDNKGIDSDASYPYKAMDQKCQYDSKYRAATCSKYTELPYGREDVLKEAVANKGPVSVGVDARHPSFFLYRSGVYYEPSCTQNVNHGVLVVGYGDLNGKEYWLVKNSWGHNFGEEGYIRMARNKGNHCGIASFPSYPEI
# human recombinant cathepsin K, sequence (P43235 115-329): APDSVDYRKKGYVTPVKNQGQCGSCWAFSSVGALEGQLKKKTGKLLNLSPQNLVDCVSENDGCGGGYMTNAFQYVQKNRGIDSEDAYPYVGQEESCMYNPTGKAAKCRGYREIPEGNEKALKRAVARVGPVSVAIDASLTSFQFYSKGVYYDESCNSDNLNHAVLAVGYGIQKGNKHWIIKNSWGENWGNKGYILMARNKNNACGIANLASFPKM
# human cathepsin L, sequence (P07711 114-333): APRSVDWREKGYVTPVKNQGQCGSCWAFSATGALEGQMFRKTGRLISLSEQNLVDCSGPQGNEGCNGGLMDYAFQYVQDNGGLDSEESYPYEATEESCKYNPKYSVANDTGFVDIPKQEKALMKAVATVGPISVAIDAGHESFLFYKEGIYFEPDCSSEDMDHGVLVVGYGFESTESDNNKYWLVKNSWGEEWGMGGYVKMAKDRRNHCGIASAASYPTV
Molecule,Ki ([1]; Test 2 or unnumbered test) [µM],% absorption in man [2] [%],"Ki ([5]; Test 1, class symbols) [nM]",Ki ([5]; Test 2 or unnumbered test) [nM],"Ki ([6]; Test 1, class symbols) [nM]",Ki ([6]; Test 2 or unnumbered test) [nM],further results
CC(C)C[C@H](NC(=O)c1ccc(-c2csc(N3CCN(C)CC3)n2)cc1)C(=O)N1C[C@@H](C=C(Br)Br)[C@H]2OCC(=O)[C@H]21 [Ref Ex 9],6.1,,,,,,
N[C@@H](Cc1ccccc1)C(=O)O [L-Phenylalanine],,100,,,,,
"N—((S)-1-((3aS,6R,6aS)-6-methoxy-oxodihydro-2H-furo[3,2-b]pyrrol-4(5H,6H,6aH)-yl)-4-methyl-oxopentan-2-yl)-4-(2-(4-methylpiperazine-1-yl)thiazol-4-yl)benzamide",,,,,,,papp value [3]: 9e-07 cm/s
"C#C[C@@H]1CN(C(=O)[C@H](CC(C)C)NC(=O)c2ccc(-c3csc(N4CCN(C)CC4)n3)cc2)[C@@H]2C(=O)CO[C@H]12 [Example 1, N-[1-6-(ethynyl-3-oxo-hexahydro-furo[3,2-b]pyrrole-4-carbonyl)-3-methyl-butyl]-4-[2-(4-methyl-piperazin-1-yl)thiazol-4-yl]-benzamide]",25,,< 50,1.6,1000 to 5000,2000,"microsomal CLint ([4]; whole blood): 3 µL/min/mg; Ki ([1]; Test 1, class symbols): > 10 µM; microsomal CLint [7]: 16 µL/min/mg"
"CC(C)=C[C@@H]1CN(C(=O)[C@H](CC(C)C)NC(=O)c2ccc(-c3nc(N4CCN(C)CC4)sc3F)cc2)[C@@H]2C(=O)CO[C@H]12 [Example 4, N-[1-6-(dimethylvinyl-3-oxo-hexahydro-furo[3,2-b]pyrrole-4-carbonyl)-3-methyl-butyl]-4-[5-fluoro-2-(4-methyl-piperazin-1-yl)thiazol-4-yl]-benzamide]",,,,2.7,,300,
CN(Cc1cnc2nc(N)nc(N)c2n1)c1ccc(C(=O)N[C@@H](CCC(=O)O)C(=O)O)cc1 [Methotrexate],,20,,,,,
CC(C)C[C@H](NC(=O)c1ccc(-c2csc(N3CCN(C)CC3)n2)cc1)C(=O)N1C[C@@H](C)[C@H]2OCC(=O)[C@H]21 [comparative example],,,,,,,estimated / calculated whole blood half life ([4]; calculated from whole blood CLint): little over an hour; microsomal CLint ([4]; whole blood): 9 µL/min/mg; whole blood CLint value ([4]; whole blood): 9 µL/min/mg; microsomal CLint [7]: 49 µL/min/mg
"C#C[C@@H]1CN(C(=O)[C@H](CC(C)C)NC(=O)c2ccc(-c3nc(N4CCN(C)CC4)sc3F)cc2)[C@@H]2C(=O)CO[C@H]12 [Example 2, N-[1-6-(ethynyl-3-oxo-hexahydro-furo[3,2-b]pyrrole-4-carbonyl)-3-methyl-butyl]-4-[5-fluoro-2-(4-methyl-piperazin-1-yl)thiazol-4-yl]-benzamide]",21,,< 50,1.1,1000 to 5000,1700,"in vivo exposure (Cmax or AUC) [8]: very much greater; Papp at 120 min, 10 µM [9]: 9.1 ×10⁻⁶ cm/s; Ki ([1]; Test 1, class symbols): > 10 µM"
OC[C@@H](O)[C@@H](O)[C@H](O)[C@H](O)CO [Mannitol],,16,,,,,
"C#C[C@@H]1CN(C(=O)[C@H](CC(C)C)NC(=O)c2ccc(-c3csc(N4CCN(C)CC4)n3)c(F)c2)[C@@H]2C(=O)CO[C@H]12 [Example 3, N-[1-6-(ethynyl-3-oxo-hexahydro-furo[3,2-b]pyrrole-4-carbonyl)-3-methyl-butyl]-3-fluoro-4-[2-(4-methyl-piperazin-1-yl)thiazol-4-yl]-benzamide]",,,< 50,4,501 to 1000,1400,
